Measured values as given in US10428087B2, “Pyrimidinones as PI3K inhibitors” (Incyte Corporation, priority 2009, dated 2019).

Tests used:
Format in all cases: biochemical
PI3Kγ = PI3Kγ (Homo sapiens (Human), UniProt P48736); assay: PI3K enzyme assay, [γ-33P]ATP filter plate (Example A2), PI3Kγ; settings: read-out: PI3Kγ^c IC50
Procedure: Materials: Lipid kinase substrate, phosphoinositol-4,5-bisphosphate (PIP2), was purchased from Echelon Biosciences (Salt Lake City, Utah). PI3K isoforms α, β, δ and γ were purchased from Millipore (Bedford, Mass.). ATP, MgCl2, DTT, EDTA, MOPS and CHAPS were purchased from Sigma—Aldrich (St. Louis, Mo.).
The kinase reaction was conducted in clear-bottom 96-well plate from Thermo Fisher Scientific in a final volume of 24 μL. Inhibitors were first diluted serially in DMSO and added to the plate wells before the addition of other reaction components. The final concentration of DMSO in the assay was 0.5%. The PI3K assays were carried out at room temperature in 20 mM MOPS, pH 6.7, 10 mM MgCl2, 5 mM DTT and CHAPS 0.03%. The reaction mixture was prepared containing 50 μM PIP2, kinase and varying concentration of inhibitors. Reactions were initiated by the addition of ATP containing 2.2 μCi [γ-^33P]ATP to a final concentration of 1000 μM. The final concentration of PI3K isoforms α, β, δ and γ in the assay were 1.3, 9.4, 2.9 and 10.8 nM respectively. Reactions were incubated for 180 min and terminated by the addition of 100 μL of 1 M potassium phosphate pH 8.0, 30 mM EDTA quench buffer. […] After the plate sealing, the radioactivity of the product was determined by scintillation counting on Topcount (Perkin-Elmer). […]

PI3Kα = PI3Kα (Homo sapiens (Human), UniProt P42336); assay: PI3K enzyme assay, [γ-33P]ATP filter plate (Example A2), PI3Kα; settings: read-out: PI3Kα^c IC50
Chain of PI3Kα (P42336 whole entry, species assumed, canonical isoform): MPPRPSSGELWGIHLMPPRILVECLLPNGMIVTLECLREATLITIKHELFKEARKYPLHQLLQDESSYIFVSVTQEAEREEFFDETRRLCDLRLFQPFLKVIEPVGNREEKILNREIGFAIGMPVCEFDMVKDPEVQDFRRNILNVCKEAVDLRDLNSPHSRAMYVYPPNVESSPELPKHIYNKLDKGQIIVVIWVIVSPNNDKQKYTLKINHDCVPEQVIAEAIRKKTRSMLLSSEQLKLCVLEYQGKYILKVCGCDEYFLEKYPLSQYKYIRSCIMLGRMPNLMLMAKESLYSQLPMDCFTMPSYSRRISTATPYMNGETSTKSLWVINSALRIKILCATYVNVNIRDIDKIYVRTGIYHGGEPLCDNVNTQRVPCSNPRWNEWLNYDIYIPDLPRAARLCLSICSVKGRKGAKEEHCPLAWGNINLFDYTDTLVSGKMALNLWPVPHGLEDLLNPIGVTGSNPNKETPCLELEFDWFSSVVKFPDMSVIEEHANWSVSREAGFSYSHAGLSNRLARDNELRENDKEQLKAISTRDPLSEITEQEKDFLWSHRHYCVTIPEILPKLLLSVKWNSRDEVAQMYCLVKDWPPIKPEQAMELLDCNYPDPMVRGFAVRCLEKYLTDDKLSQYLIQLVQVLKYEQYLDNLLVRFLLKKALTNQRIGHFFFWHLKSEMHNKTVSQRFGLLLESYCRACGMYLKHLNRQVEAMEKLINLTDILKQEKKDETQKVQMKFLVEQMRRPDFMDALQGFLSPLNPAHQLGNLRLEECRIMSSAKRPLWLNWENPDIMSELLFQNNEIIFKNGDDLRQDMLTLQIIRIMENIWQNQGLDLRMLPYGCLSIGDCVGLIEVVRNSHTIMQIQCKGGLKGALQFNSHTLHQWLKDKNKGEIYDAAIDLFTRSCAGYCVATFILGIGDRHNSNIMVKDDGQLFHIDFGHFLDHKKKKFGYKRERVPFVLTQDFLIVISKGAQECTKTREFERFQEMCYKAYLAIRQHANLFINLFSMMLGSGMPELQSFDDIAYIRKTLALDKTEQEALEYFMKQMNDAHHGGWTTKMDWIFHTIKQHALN
Chain of PI3Kα (P27986 whole entry partner, species assumed, canonical isoform): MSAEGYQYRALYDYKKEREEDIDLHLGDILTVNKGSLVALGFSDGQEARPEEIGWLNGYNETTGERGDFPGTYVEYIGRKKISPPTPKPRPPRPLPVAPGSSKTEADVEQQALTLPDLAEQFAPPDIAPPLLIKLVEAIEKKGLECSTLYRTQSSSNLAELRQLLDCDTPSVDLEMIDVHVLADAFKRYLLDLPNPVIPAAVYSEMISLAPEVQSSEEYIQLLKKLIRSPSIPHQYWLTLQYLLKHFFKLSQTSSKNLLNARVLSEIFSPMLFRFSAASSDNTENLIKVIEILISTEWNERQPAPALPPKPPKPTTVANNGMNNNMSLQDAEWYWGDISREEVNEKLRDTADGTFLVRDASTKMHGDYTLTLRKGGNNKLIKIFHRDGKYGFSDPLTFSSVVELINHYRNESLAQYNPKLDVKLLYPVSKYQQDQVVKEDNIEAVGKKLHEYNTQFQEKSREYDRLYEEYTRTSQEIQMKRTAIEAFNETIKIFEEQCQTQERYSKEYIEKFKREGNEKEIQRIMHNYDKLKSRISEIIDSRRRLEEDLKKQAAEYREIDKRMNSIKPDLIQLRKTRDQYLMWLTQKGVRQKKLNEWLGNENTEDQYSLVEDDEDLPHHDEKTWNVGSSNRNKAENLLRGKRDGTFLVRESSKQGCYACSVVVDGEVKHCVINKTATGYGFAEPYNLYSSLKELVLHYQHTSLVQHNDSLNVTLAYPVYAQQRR
Procedure: Materials: Lipid kinase substrate, phosphoinositol-4,5-bisphosphate (PIP2), was purchased from Echelon Biosciences (Salt Lake City, Utah). PI3K isoforms α, β, δ and γ were purchased from Millipore (Bedford, Mass.). […] The kinase reaction was conducted in clear-bottom 96-well plate from Thermo Fisher Scientific in a final volume of 24 μL. Inhibitors were first diluted serially in DMSO and added to the plate wells before the addition of other reaction components. The final concentration of DMSO in the assay was 0.5%. The PI3K assays were carried out at room temperature in 20 mM MOPS, pH 6.7, 10 mM MgCl2, 5 mM DTT and CHAPS 0.03%. The reaction mixture was prepared containing 50 μM PIP2, kinase and varying concentration of inhibitors. Reactions were initiated by the addition of ATP containing 2.2 μCi [γ-^33P]ATP to a final concentration of 1000 μM. […] Reactions were incubated for 180 min and terminated by the addition of 100 μL of 1 M potassium phosphate pH 8.0, 30 mM EDTA quench buffer. […] The filter plate was aspirated on a Millipore Manifold under vacuum and washed with 18×200 μL wash buffer containing 1 M potassium phosphate pH 8.0 and 1 mM ATP. After drying by aspiration and blotting, the plate was air dried in an incubator at 37° C. overnight. […] After the plate sealing, the radioactivity of the product was determined by scintillation counting on Topcount (Perkin-Elmer). […]

PI3Kβ = PI3Kβ (Homo sapiens (Human), UniProt P42338); assay: PI3K enzyme assay, [γ-33P]ATP filter plate (Example A2), PI3Kβ; settings: read-out: PI3Kβ^c IC50
Chain of PI3Kβ (P42338 whole entry, species assumed, canonical isoform): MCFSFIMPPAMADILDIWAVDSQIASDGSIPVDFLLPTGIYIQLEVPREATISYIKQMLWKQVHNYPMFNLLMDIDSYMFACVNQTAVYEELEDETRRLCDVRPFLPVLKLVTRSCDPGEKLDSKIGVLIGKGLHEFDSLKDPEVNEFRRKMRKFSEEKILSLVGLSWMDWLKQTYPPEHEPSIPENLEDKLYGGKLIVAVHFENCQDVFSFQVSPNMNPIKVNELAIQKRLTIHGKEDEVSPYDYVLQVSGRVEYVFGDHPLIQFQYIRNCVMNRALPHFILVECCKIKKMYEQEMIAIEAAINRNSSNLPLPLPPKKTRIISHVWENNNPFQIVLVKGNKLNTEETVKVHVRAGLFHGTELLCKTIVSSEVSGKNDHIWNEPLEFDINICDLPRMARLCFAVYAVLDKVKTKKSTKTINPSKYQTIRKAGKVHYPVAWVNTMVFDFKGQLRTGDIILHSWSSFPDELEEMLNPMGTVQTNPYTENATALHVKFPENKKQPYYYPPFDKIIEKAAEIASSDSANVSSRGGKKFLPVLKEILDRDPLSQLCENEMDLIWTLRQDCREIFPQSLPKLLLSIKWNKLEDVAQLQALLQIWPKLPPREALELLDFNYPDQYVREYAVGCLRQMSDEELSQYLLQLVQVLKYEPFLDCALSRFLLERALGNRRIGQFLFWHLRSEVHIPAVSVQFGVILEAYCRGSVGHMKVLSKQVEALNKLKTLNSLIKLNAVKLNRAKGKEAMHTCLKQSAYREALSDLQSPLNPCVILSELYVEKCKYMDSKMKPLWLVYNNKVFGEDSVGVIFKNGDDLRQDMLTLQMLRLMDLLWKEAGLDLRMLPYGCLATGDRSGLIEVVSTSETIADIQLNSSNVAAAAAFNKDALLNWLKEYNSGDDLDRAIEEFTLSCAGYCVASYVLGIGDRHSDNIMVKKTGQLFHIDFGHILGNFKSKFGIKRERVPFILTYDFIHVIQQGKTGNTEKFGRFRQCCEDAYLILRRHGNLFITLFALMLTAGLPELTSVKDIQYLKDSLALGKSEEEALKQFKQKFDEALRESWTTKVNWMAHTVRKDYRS
Chain of PI3Kβ (P27986 whole entry partner, species assumed, canonical isoform): as the sequence (P27986 whole entry partner, species assumed, canonical isoform) above
Procedure: Materials: Lipid kinase substrate, phosphoinositol-4,5-bisphosphate (PIP2), was purchased from Echelon Biosciences (Salt Lake City, Utah). PI3K isoforms α, β, δ and γ were purchased from Millipore (Bedford, Mass.). ATP, MgCl2, DTT, EDTA, MOPS and CHAPS were purchased from Sigma—Aldrich (St. Louis, Mo.). The kinase reaction was conducted in clear-bottom 96-well plate from Thermo Fisher Scientific in a final volume of 24 μL. Inhibitors were first diluted serially in DMSO and added to the plate wells before the addition of other reaction components. The final concentration of DMSO in the assay was 0.5%. The PI3K assays were carried out at room temperature in 20 mM MOPS, pH 6.7, 10 mM MgCl2, 5 mM DTT and CHAPS 0.03%. The reaction mixture was prepared containing 50 μM PIP2, kinase and varying concentration of inhibitors. Reactions were initiated by the addition of ATP containing 2.2 μCi [γ-^33P]ATP to a final concentration of 1000 μM. […] Reactions were incubated for 180 min and terminated by the addition of 100 μL of 1 M potassium phosphate pH 8.0, 30 mM EDTA quench buffer. […] After the plate sealing, the radioactivity of the product was determined by scintillation counting on Topcount (Perkin-Elmer). […]

Measured: IC50

Chain of PI3Kγ (P48736 whole entry, species assumed, canonical isoform): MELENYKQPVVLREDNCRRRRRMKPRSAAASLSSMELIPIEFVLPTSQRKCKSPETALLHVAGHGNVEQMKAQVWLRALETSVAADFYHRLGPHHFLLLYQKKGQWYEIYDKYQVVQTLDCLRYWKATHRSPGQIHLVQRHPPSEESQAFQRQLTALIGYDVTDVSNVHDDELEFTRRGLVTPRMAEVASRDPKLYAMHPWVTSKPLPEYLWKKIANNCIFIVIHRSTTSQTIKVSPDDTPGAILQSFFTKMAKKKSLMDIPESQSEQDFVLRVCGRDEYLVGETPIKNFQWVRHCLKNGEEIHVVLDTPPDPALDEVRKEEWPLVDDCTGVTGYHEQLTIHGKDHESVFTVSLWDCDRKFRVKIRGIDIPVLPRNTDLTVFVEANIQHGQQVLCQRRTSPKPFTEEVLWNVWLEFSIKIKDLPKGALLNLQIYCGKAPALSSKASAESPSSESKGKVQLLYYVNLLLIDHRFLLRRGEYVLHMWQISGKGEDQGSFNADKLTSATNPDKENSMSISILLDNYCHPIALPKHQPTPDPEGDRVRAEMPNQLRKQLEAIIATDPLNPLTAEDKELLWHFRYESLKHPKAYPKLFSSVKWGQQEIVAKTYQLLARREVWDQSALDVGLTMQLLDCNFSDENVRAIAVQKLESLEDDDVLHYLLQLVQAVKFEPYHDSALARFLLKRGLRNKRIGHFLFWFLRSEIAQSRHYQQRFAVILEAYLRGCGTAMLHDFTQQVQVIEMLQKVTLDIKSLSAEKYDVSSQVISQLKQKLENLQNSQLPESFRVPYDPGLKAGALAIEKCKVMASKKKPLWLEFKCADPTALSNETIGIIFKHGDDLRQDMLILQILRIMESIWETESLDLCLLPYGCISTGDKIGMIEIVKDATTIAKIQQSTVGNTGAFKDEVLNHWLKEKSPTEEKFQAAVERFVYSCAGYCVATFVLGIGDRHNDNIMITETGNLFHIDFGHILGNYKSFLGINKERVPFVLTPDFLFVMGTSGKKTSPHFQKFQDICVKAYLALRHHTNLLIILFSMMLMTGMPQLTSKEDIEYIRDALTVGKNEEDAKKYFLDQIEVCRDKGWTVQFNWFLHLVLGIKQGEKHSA

Cc1csc2nc(C(C)Nc3ncnc4[nH]cnc34)c(-c3cc(F)cc(F)c3)c(=O)n12 (single isomer, unassigned) [Example 44, 6-(3,5-difluorophenyl)-3-methyl-7-[1-(9H-purin-6-ylamino)ethyl]-5H-[1,3]thiazolo[3,2-a]pyrimidin-5-one]
> 500 nM: all assays above
